pIC50: −log10 of the molar value.

Broadly, the IC50 is the concentration needed to halve the response being measured. Usually pIC50 stands for the negative decadic logarithm of the IC50, by convention in mol/L.

The subject of series [1] is mouse cultured cancer cells (P388). Nature of the series: cells. It counts as cell-based.
A further series addresses Chymotrypsin (Bos taurus, UniProt P00766). Nature of the series: Chymotrypsin inhibition in vitro (substrate A: 3H casein). It counts as biochemical. The note with it: bovine. How it is done:
(§1) An inhibitory activity of BE-16627A and B to various proteases including stromelysin and collagenase was determined by an in-vitro test. As stromelysin (human), prostromelysin prepared by genetic engineering (Celltech., GB) was used by treating it with trypsin (10 μg/ml) at 37° C. for 10 minutes and inhibiting a residual trypsin activity with soybean trypsin inhibitor (50 μg/ml).
(§2) Substrate A: ^3 Hcasein

The subject of another series is metal enzymes. Kind of series: Inhibitory activity to various proteases (metal enzymes versus others). It counts as biochemical. Particulars: in words, from Table 1. The procedure:
as §1

Another series addresses T1, Stromelysin (Homo sapiens, UniProt P08254).
T1 construct: prostromelysin prepared by genetic engineering (Celltech., GB) was used by treating it with trypsin; purchased Celltech., GB
Kind of series: Stromelysin inhibition in vitro (substrate A: 3H casein). Format: biochemical, Human (Recombinant). Particulars: for inhibition of stromelysin (human) relative to other enzymes: in words, from Table 1, next collagenase and thermolysin; for pIC50: stromelysin, human recombinant, substrate A (3H casein). The procedure: As stromelysin (human), prostromelysin prepared by genetic engineering (Celltech., GB) was used by treating it with trypsin (10 μg/ml) at 37° C. for 10 minutes and inhibiting a residual trypsin activity with soybean trypsin inhibitor (50 μg/ml).
as §2

Another series deals with Collagenase. Nature of the series: Collagenase inhibition in vitro (substrate A: 3H casein). Particulars: Chlostridium histriticum. Format: biochemical. The procedure:
as §1, §2

The target of the next series is T2, Trypsin (Bos taurus, UniProt P00760).
T2 sequence (P00760 24-246): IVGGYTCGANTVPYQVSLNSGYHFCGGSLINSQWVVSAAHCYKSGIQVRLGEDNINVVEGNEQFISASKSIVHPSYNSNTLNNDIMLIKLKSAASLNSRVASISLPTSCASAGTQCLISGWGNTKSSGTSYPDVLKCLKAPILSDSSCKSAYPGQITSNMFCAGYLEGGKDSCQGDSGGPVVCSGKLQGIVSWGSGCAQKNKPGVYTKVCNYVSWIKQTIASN
Nature of the series: Trypsin inhibition in vitro (substrate A: 3H casein). It counts as biochemical. The note with it: bovine. How it is done:
as §1, §2

In another series the target is Elastase (Sus scrofa, UniProt P00772). Kind of series: Elastase inhibition in vitro (substrate B: Succinylalanyl-prolyl-alanyl-methylcumarylamide). It counts as biochemical. Particulars: porcine. The procedure: as §1
Substrate B: Succinylalanyl-prolyl-alanyl-methylcumarylamide

The target of the next series is T3, Papain (Carica papaya, UniProt P00784).
T3 construct: from tissue; host or cells: Papaya latex
T3 sequence (P00784 134-345): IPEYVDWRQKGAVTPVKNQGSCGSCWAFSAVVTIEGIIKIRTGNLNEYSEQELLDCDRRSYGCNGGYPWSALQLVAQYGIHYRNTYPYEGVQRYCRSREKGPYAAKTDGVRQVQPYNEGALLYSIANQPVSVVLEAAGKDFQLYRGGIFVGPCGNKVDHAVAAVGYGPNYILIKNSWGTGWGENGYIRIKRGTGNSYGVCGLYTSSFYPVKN
Nature of the series: Papain inhibition in vitro (substrate A: 3H casein). Format: biochemical. Particulars: papaya latex. How it is done:
as §1, §2

A further series concerns the target Pepsin (Sus scrofa, UniProt P00791). Kind of series: Pepsin inhibition in vitro (substrate A: 3H casein). Format: biochemical. The note with it: porcine. The procedure:
as §1, §2

A further series in a line: Solubility. Format: physicochemical.
Another series deals with Thermolysin (Bacillus thermoproteolyticus, UniProt P00800). Nature of the series: Thermolysin inhibition in vitro (substrate A: 3H casein). Format: biochemical, Bacillus thermo-proteolyticus. The procedure:
as §1, §2

[2] abbreviates: in an organic solvent such as chloroform, ethyl acetate, benzene, hexane and the like.

T1 sequence (P08254 100-477): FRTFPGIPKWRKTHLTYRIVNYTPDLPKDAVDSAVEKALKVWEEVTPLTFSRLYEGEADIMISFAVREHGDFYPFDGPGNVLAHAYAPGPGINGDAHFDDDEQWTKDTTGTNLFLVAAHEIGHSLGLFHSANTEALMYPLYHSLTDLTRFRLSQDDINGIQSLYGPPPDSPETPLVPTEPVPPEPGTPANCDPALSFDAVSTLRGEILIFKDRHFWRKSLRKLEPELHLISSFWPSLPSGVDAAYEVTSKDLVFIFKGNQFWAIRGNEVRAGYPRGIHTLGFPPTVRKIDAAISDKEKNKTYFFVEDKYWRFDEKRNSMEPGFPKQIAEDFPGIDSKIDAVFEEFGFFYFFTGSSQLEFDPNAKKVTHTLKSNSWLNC
Sequence of Thermolysin (P00800 233-548): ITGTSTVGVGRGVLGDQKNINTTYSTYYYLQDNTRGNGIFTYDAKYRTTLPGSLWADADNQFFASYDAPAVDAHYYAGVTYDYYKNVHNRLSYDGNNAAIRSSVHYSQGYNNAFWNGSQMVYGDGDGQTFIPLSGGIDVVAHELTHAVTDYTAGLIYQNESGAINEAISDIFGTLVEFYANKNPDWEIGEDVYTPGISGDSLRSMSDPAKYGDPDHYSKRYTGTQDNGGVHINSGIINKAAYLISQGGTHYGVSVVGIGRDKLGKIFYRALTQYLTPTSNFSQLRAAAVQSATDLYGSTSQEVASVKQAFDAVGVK
Sequence of Pepsin (P00791 60-385): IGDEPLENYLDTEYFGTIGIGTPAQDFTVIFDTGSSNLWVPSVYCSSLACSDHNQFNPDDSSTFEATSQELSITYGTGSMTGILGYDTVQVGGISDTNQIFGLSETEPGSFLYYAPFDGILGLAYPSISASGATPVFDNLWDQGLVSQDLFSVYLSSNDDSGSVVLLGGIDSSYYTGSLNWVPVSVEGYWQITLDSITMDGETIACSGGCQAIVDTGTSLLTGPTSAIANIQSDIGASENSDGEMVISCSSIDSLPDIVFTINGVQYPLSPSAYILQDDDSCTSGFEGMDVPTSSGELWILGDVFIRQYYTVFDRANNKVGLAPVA
Sequence of Elastase (P00772 27-266): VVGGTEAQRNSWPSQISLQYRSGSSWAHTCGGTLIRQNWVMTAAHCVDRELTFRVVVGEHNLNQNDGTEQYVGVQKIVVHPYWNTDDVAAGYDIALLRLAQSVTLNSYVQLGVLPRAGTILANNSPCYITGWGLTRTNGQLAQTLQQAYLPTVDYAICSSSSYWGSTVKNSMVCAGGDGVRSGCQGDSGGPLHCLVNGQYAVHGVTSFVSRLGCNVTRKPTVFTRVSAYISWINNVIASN

For `CCCC(CC(=O)NO)C(=O)NC(CO)C(=O)NC(C(=O)O)C(C)C` (stereo not drawn) [BE-16627A], the cytotoxicity result in series [1] is listed as “low cytotoxicity”. Moreover, the IC50 in [1] (Mus musculus, P388, read-out: IC50 value (cytotoxic test)) is not below 100 µg/mL. Further, the negative logarithm of the IC50 (pIC50) at Chymotrypsin was less than 3.56; at Stromelysin it was 5.30; against Collagenase, 4.94; against Trypsin it was less than 3.56; against Elastase, less than 3.56; against Papain, 3.86. For the same compound, the negative-log IC50 (pIC50) against Pepsin was less than 3.56; at Thermolysin, 4.71. Moreover, the “inhibition of the activity of metal enzymes” value with metal enzymes is reported as “specifically inhibited”. Also, the “inhibition of stromelysin (human) relative to other enzymes” value on Stromelysin was “most strongly inhibited”. The Solubility result in the series “Solubility” (in an alkaline water) is listed as “readily soluble”; in the series “Solubility” (setting [2]) it was “almost insoluble”.
For `CC(C)CC(CC(=O)NO)C(=O)NC(CO)C(=O)NC(C(=O)O)C(C)C` (stereo not drawn) [BE-16627B], in series [1], the cytotoxicity result was “low cytotoxicity”. In addition, the pIC50 was less than 3.58 against Chymotrypsin; 6.24 at Stromelysin; 5.57 against Collagenase; less than 3.58 at Trypsin; less than 3.58 against Elastase; less than 3.58 against Papain. In addition, the negative-log IC50 (pIC50) at Pepsin is less than 3.58; at Thermolysin it was 5.62. Moreover, in the series on metal enzymes, the “inhibition of the activity of metal enzymes” value is “specifically inhibited”. In addition, the “inhibition of stromelysin (human) relative to other enzymes” value on Stromelysin is recorded as “most strongly inhibited”. Moreover, the Solubility result was “readily soluble” in the series “Solubility” (in an alkaline water) and “almost insoluble” in “Solubility” (setting [2]).
